Each molecule was assayed against T1, TRPC4 (Homo sapiens, UniProt Q9UBN4) (assay: TRPC4 FLIPR Assay (HEK-TREx hTRPC4, Englerin A stimulation)). Settings: Table 9; HEK-TREx hTRPC4; read-out: hTRPC4-FLIPR IC50.
T1 construct: expressed in transfected cells; host or cells: HEK-TREx (HekTrex-293), cell line ICLN-1694, tetracycline-induced
T1 sequence (Q9UBN4 1-982 isoform Q9UBN4-5): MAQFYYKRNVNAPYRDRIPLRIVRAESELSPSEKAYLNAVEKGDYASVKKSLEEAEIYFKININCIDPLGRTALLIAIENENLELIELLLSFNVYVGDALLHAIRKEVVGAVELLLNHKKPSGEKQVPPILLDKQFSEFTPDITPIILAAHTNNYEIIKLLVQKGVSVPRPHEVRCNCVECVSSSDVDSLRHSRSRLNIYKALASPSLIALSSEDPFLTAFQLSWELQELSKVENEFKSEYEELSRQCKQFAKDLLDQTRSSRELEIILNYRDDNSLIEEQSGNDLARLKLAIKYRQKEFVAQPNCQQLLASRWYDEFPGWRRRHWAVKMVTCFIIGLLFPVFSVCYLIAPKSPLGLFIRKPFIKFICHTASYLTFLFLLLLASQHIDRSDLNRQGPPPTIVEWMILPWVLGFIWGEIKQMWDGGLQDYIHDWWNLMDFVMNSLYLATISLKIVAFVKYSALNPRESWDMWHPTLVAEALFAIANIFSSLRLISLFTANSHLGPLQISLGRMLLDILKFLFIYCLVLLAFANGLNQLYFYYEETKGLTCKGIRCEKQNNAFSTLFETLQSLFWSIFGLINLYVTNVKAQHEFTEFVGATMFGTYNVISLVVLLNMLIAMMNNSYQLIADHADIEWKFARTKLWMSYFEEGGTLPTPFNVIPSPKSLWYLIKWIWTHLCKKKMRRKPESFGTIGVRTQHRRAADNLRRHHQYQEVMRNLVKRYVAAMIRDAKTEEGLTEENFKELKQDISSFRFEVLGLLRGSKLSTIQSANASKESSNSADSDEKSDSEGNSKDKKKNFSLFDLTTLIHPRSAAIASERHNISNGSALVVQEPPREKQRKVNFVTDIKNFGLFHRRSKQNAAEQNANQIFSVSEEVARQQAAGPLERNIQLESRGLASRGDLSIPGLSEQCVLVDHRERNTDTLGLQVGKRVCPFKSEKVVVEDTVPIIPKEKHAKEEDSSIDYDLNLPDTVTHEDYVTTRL
Format: cell-based
Method: FLIPR Assay Buffer (Earls Balanced Salt Solution (EBSS)) was prepared as follows:
10-point dose response curves were generated using the Echo-550 acoustic dispenser. Compound source plates were made by serially diluting compound stocks to create 10 mM, 1 mM, and 0.1 mM solutions in DMSO into Echo certified LDV plates. The Echo then serially spotted 100% DMSO stock solutions into source dose response plates to generate a 4-fold dilution scheme. 100% DMSO was added to the spotted dose response plates to bring the final volume to 5 μl. […] of the dose response stock plate was then spotted into pre-incubation and stimulation assay plates. […] of pre-incubation buffer and 100 μl of stimulation buffer was then added to the plates resulting in a final assay test concentration range of 30 μM to 0.0001 μM with a final DMSO concentration of 0.3%.
Experimental Methods: Cells expressing TRPC4 were plated onto 384 well, black pdl-coated microplates and maintained in TRPC4 growth media the day prior to use for experiments. TRPC4 expression was induced by the application of 1 μg/ml tetracycline at the time of plating. […] Cells were incubated at room temperature, protected from light, for 60-90 minutes. After the incubation period, the dye was removed and replaced with 10 μl of EBSS. Cell, pre-incubation and stimulation plates were loaded onto the FLIPR-II and the assay was initiated. The FLIPR measured a 10 second baseline and then added 10 μl of 2× compounds (or controls). Changes in fluorescence were monitored for an additional 5 minutes. After a 5 minute pre-incubation, 20 μl of 2× Englerin A (with 1× compound or controls) was added to the cell plate. The final Engerlin A stimulation concentration in the assay is 100 nM. After the Englerin A addition, changes in fluorescence were monitored for an additional 5 minutes.
Test Agent Effect: Test agent modulation of TRPC4 calcium response was determined as follows. After the Englerin A, fluorescence was monitored for a 5 minute period. The maximum relative fluorescence response (minus the control response of […] of the control inhibitor) was captured and exported from the FLIPR. Test agent effect was calculated as % inhibition using the following formula: % inhibition=((RFU TEST AGENT−Plate Average RFU REF INHIB)/(Plate Average RFU CONTROL−Plate Average RFU REF INHIB))×100

| IC50 | SMILES |
| --- | --- |
| 0.01 to 1000 nM | C[C@@H](c1ccccc1C(F)(F)F)N1CCN(c2cn[nH]c(=O)c2Cl)CC1=O [drawing 1044] |
| 0.01 to 1000 nM | C[C@H](c1ccc(F)cc1C(F)(F)F)N1C[C@@H](C)N(c2cn[nH]c(=O)c2Cl)CC1=O [drawing 1048] |
| 0.01 to 1000 nM | C[C@@H](c1ccc(F)cc1C(F)(F)F)N1CCN(c2cn[nH]c(=O)c2Cl)CC1=O [drawing 1049] |

Same assay, conditions: Table 10; HEK-TREx hTRPC4; read-out: TRPC4-FLIPR ICSO

| IC50 | SMILES |
| --- | --- |
| 0.01 to 1000 nM | [2H]c1nc2c(n1Cc1ccccc1C(F)(F)F)CCN(c1cn[nH]c(=O)c1Cl)C2 |
| 0.01 to 1000 nM | C[C@H](c1ccc(F)cc1C(F)F)n1nc(C(N)=O)c2c1CCN(c1cn[nH]c(=O)c1Cl)C2 |
| 0.01 to 1000 nM | COCc1ccccc1Cn1cnc2c1CCN(c1cn[nH]c(=O)c1Cl)C2 [drawing 1053] |
| 1000 to 5000 nM | COCc1ncccc1Cn1cnc2c1CCN(c1cn[nH]c(=O)c1Cl)C2 [drawing 1065] |
| 0.01 to 1000 nM | C[C@@H]1Cc2c(nnn2[C@@H](C)c2ccccc2C(F)(F)F)CN1c1cn[nH]c(=O)c1Cl [drawing 1071] |
| 0.01 to 1000 nM | C[C@H](c1ccccc1C(F)(F)F)n1nnc2c1CCN(c1cn[nH]c(=O)c1Cl)[C@H]2C [drawing 1078] |
| 0.01 to 1000 nM | CCS(=O)(=O)c1nc2c(n1Cc1ccccc1C(F)(F)F)CCN(c1cn[nH]c(=O)c1Cl)C2 [drawing 1079] |
| 0.01 to 1000 nM | O=c1[nH]ncc(N2CCc3c(c(=O)[nH]n3Cc3ccccc3C(F)(F)F)C2)c1Cl [drawing 1081] |
| 0.01 to 1000 nM | C[C@@H]1Cc2c(nnn2[C@@H](C)c2ccc(F)cc2C(F)(F)F)CN1c1cn[nH]c(=O)c1Cl [drawing 1085] |
| 0.01 to 1000 nM | C[C@H](c1ccc(F)cc1C(F)(F)F)n1nnc2c1CCN(c1cn[nH]c(=O)c1Cl)[C@H]2C [drawing 1092] |
| 0.01 to 1000 nM | C[C@H](c1ccccc1C(F)F)n1nnc2c1CCN(c1cn[nH]c(=O)c1Cl)C2 [drawing 1100] |
| 0.01 to 1000 nM | C[C@@H](c1ccccc1C(F)F)n1nnc2c1CCN(c1cn[nH]c(=O)c1Cl)C2 [drawing 1106] |
| 0.01 to 1000 nM | C[C@@H](c1ccc(F)cc1C(F)F)n1nnc2c1CCN(c1cn[nH]c(=O)c1Cl)C2 [drawing 1107] |
| 0.01 to 1000 nM | CNC(=O)c1nn([C@H](C)c2ccccc2C(F)F)c2c1CN(c1cn[nH]c(=O)c1Cl)CC2 [drawing 1113] |
| 0.01 to 1000 nM | CC(c1ccc(F)cc1C(F)F)n1nc(C(N)=O)c2c1CCN(c1cn[nH]c(=O)c1Cl)C2 (centres unmarked) [drawing 1114] |
| 0.01 to 1000 nM | CNC(=O)c1nn(Cc2ccc(F)cc2C(F)F)c2c1CN(c1cn[nH]c(=O)c1Cl)CC2 [drawing 1117] |

| IC50 | SMILES |
| --- | --- |
| 0.01 to 1000 nM | C[C@@H]1Cc2c(c(C(N)=O)nn2Cc2ccccc2C(F)(F)F)CN1c1cn[nH]c(=O)c1Cl [drawing 1118] |
| 0.01 to 1000 nM | COC[C@H](c1ccccc1C(F)(F)F)n1cnc2c1CCN(c1cn[nH]c(=O)c1Cl)C2 [drawing 1120] |
| 0.01 to 1000 nM | C[C@H](c1ccccc1C(F)(F)F)n1nc(C(N)=O)c2c1CCN(c1cn[nH]c(=O)c1Cl)C2 [drawing 1123] |
| 0.01 to 1000 nM | C[C@@H](c1cccnc1CC(F)F)n1nnc2c1CCN(c1cn[nH]c(=O)c1Cl)C2 [drawing 1125] |
| 0.01 to 1000 nM | O=c1[nH]ncc(N2CCc3c(nnn3Cc3ccc(F)cc3CC(F)(F)F)C2)c1Cl [drawing 1131] |
| 0.01 to 1000 nM | C[C@H](c1ccccc1Cl)n1nnc2c1CCN(c1cn[nH]c(=O)c1Cl)C2 [drawing 1133] |
| 0.01 to 1000 nM | CNC(=O)c1nc2c(n1Cc1ccccc1C(F)(F)F)CCN(c1cn[nH]c(=O)c1Cl)C2 [drawing 1134] |
| 0.01 to 1000 nM | NC(=O)c1nc2c(n1Cc1ccccc1C(F)(F)F)CCN(c1cn[nH]c(=O)c1Cl)C2 [drawing 1135] |
| 0.01 to 1000 nM | O=c1[nH]ncc(N2CCc3c(ncn3Cc3ccc(F)cc3Cl)C2)c1Cl [drawing 1136] |
| 0.01 to 1000 nM | O=c1[nH]ncc(N2CCc3c(ncn3Cc3ccccc3Cl)C2)c1Cl [drawing 1139] |
| 0.01 to 1000 nM | C[C@@H](c1ccccc1Cl)n1nnc2c1CCN(c1cn[nH]c(=O)c1Cl)C2 [drawing 1140] |
| 0.01 to 1000 nM | CS(=O)(=O)c1nc2c(n1Cc1ccccc1C(F)(F)F)CCN(c1cn[nH]c(=O)c1Cl)C2 [drawing 1142] |
| 0.01 to 1000 nM | CN(c1ncc2c(n1)CN(c1cn[nH]c(=O)c1Cl)C2)c1ccc(F)cc1Cl [drawing 1144] |
| 0.01 to 1000 nM | CCN(c1ncc2c(n1)CN(c1cn[nH]c(=O)c1Cl)C2)c1ccccc1Cl [drawing 1148] |
| 0.01 to 1000 nM | O=c1[nH]ncc(N2CCc3c(Cc4ccc(F)cc4C(F)(F)F)n[nH]c3C2)c1Cl [drawing 1153] |
| 0.01 to 1000 nM | CCc1ncccc1N(C)c1ncc2c(n1)CN(c1cn[nH]c(=O)c1Cl)C2 [drawing 1154] |

From patent publication US20260184708A1, “PYRIDAZINONES AND METHODS OF USE THEREOF” (GFB (ABC), LLC, priority 2017, published 2026)
